Laboratory results from patent publication US8975259B2, “Compositions and methods for inhibiting G protein signaling” (University of Rochester, priority 2007, dated 2015).
Values joined by “and” are separate entries in the source; they are usually repeats but may differ in a detail not shown here. Identical values can stand only once.

Legend:
[1] = system: carrageenan-induced paw edema in mice; test: Carrageenan-induced paw edema and neutrophil abundance
Gαi1-Gβ1γ2 interaction = biological target: T1, Gαi1-Gβ1γ2 interaction (UniProt P54311+P63212); test: Flow cytometry competition for FITC-Gαi1 binding to immobilized b-Gβ1γ2
T1 construct: made in house; host or cells: b-βγ: Sf9 insect cells
Experimental: (2003) supra; Sarvazyan, et al. (1998) J. Biol. […] Fluorescein-labeled Ga^ (Fan) was prepared in accordance with standard methods (Sarvazyan, et al. (1998) supra). Assays were used to determine peptide effects on Gα-Gβγ interactions included competition and dissociation assays (Ghosh, et al. (2003) supra). […] The bead-associated fluorescence was then recorded in a BD Biosciences […] flow cytometer. Data was corrected for background fluorescence and fit with a sigmoid dose response curve using Graph Pad Prism 4. To measure dissociation of Fan from b-Gβaγ2, 100 pM of Fa^ was incubated with 50 pM immobilized b-Gβ1γ2 at room temperature for 15-20 minutes.

PLCβ2-bGβ1γ2 interaction = biological target: T2, PLCβ2-bGβ1γ2 interaction (UniProt P54311+P63212); test: PLCβ2 binding to biotinylated Gβ1γ2 (avidin agarose precipitation); details: M119 10 μM, M201 1 μM; result in words
T2 construct: made in house; host or cells: bGβ1γ2: Sf9 insect cells
Experimental: Purified PLCβ2 (0.25 ng) was assayed in the presence (▴) or absence (▪) of 100 nM purified Gβ1γ2. […] Assays contained 10 ng of purified p101/p110 PI3Kγ heterodimer with or without 100 nM purified Gβ1γ2. Left panel: (▴) 100 nM Gβ1γ2 or (▪) no βγ. […] M119 or M201 and 25 nM purified GRK2 were added simultaneously to 250 nM biotinylated Gβ1γ2 (bGβ1γ2) immobilized on streptavidin agarose. GRK2 was detected with antibody to GRK2. Data are representative (mean ±SEM, except D) repeated at least three times each. […] 30 nM bGβ1γ2 was incubated with either 30 nM PLCβ2 or PLCβ3 in the presence or absence of M119 or M201 for 16 h at 4° C. before precipitation with avidin agarose and detection with PLCβ2,or Gβ antibodies. […] Same as 4E with PLCβ3.

[2] = system: GRK2 membrane recruitment in adult mouse cardiomyocytes; test: β-AR-mediated GRK2 membrane recruitment in isolated adult mouse cardiomyocytes; format: cell-based; details: result in words
Experimental: Thus, it was tested whether M119 could block GRK2 recruitment to membrane-bound Gβγ subunits upon agonist stimulation of β-AR in cardiomyocytes, similar to what had been observed in vitro with the peptide inhibitors described above. Indeed M119 reduced β-AR-mediated recruitment of GRK2 to membranes of isolated adult mouse cardiomyocytes, with a mild reduction of membrane associated GRK2 at baseline.

[3] = system: opioid-induced antinociception in mice; test: 55° C. warm-water tail-flick antinociception; format: in vivo, mouse
[4] = system: cAMP generation in adult mouse cardiomyocytes; test: cAMP generation in isolated adult mouse cardiomyocytes; format: cell-based; details: 10 μM M119 5 min pre-treatment, 100 nM isoproterenol 15 min; result in words
Experimental: Isolated cardiomyocytes were treated with vehicle (V) or 100 nM isoproterenol (I) for 15 minutes in the presence or absence of a 5 minute pre-treatment with 10 μM M119 (M). Forskolin treatment, which directly activates adenylyl cyclase, was used as a control.

[5] = system: human μ opioid receptor (hMOR-CHO cells); test: Total inositol phosphate assay in hMOR-CHO cells; format: cell-based; details: 10 μM; result in words
Experimental: Chinese hamster ovary (CHO) cells stably expressing either the human κ (hKOR-CHO), δ (hDOR-CHO)(L. Toll, Stanford Research Institute, Palo Alto, Calif.) or μ (hMOR-CHO)(G. Uhl, National Institute on Drug Abuse, Baltimore, Md.) opioid receptor were used in the experiments. Cells in 6-well plates were labeled by adding 4 μCi of [^3H]inositol for 24 hr in inositol-free F-10 media, without serum. After labeling, LiCl was added directly to the labeling media at a final concentration of 10 mM. Ligands or peptides were added at the same time. The final volume of each well was 1 mL. The plates were put back in to the incubator at 37° C. for 30 min after which time the medium was aspirated and the plates were washed twice with 1× PBS. Ice-cold 50 mM formic acid, 1 mL, was added to the plates which were placed in the cold room at 4° C. for 30 min. After the incubation, the contents of the plates were applied to Dowex AG1-X8 columns and allowed to flow all the way through the column. The columns were washed, twice each, with 50 and 100 mM formic acid, for a total of four washes, followed by elution of the IP-containing fraction with 3 mL of 1.2 M ammonium formate/0.1 M formic acid. The eluted fraction was mixed with Scintisafe scintillation fluid, for high salt, and counted. The data are represented as the fold increase over control in total inositol phospates. All experiments were repeated three times and performed in duplicate. Control cells for each experiment were labeled with [^3H]inositol and LiCl, in the same manner as the treatment groups.

Gβ1γ2 = Gβ1γ2 (UniProt P54311+P63212); design: made in house; host or cells: Sf9 insect cells (baculovirus; co-expressed with BirA and (His)6-Gαi1, from which βγ was eluted); details: Table 20, competition ELISA for SIGK binding; data from Bonacci et al. (2006); cited from earlier work

O=C(O)c1ccccc1-c1c2ccc(=O)c(O)c-2oc2c(O)c(O)ccc12 (racemic) [Gallein]
reduction of number of neutrophils in the edematous fluid ([1]; 100 mg/kg i.p., 2 h after carrageenan): approximately half
ED50 ([1]; Mus musculus, ip, read-out: ED50 for inhibiting paw edema): ~20 mg/kg
effect on carrageenan-induced paw edema ([1]; i.p. 1 h before carrageenan, gallein 100 mg/kg, indomethacin 2.5 mg/kg, result in words): reduced paw edema to levels comparable with that of indomethacin
reduction of exudate volume ([1]; i.p. pretreatment, 2 h after carrageenan): approximately 75%
reduction of paw swelling ([1]; oral gavage 30 mg/kg 1 h before carrageenan, 3 h after carrageenan): 40%
effect on paw thickness in the absence of carrageenan ([1]; result in words): no effect

O=C(O)C1CCCCC1c1c2ccc(=O)c(O)c-2oc2c(O)c(O)ccc12 (stereo not shown) [Compound M119, cyclohexanecarboxylic acid, 2-(4,5,6-trihydroxy-3-oxo-3H-xanthen-9-yl)-(9cl)]
IC50 (Gαi1-Gβ1γ2 interaction): 400 nM
interactions of Gα subunit with Gβγ subunits (Gαi1-Gβ1γ2 interaction; result in words): blocked
effect on direct binding of bGβ1γ2 to PLCβ2 (PLCβ2-bGβ1γ2 interaction): inhibited
effect on β-AR-mediated recruitment of GRK2 to membranes [2]: reduced
ED50 of Deltorphin II in the presence of M119 ([3]; M119 100 nmol i.c.v.): 11 nmol
ED50 of DAMGO co-administered with M119 ([3]; mouse, in vivo): 0.01 nmol
ED50 of DPDPE with M119 ([3]; mouse, in vivo): 5.4 nmol
ED50 of U50,488 with M119 ([3]; mouse, in vivo): 17 nmol
ED50 of morphine co-administered with the compound ([3]; mouse, in vivo): 0.065 nmol and 0.069 (0.023-0.201) nmol
Percent Antinociception ± S.E.M. ([3]; mouse, in vivo): 100 ± 0.0% and 79.3 ± 9.1% and 64.4 ± 10.0% and 55.3 ± 12.7%
effect of compound alone on baseline antinociception ([3]; mouse, in vivo): no effect
leftward shift in the DAMGO dose-response curve ([3]; mouse, in vivo): 7 fold
shift in the U50,488 dose-response curve ([3]; mouse, in vivo): 2 fold
shift of morphine ED50 / increase in analgesic potency of morphine ([3]; mouse, in vivo): 11 fold
leftward shift of systemic morphine ED50 ([3]; mouse, in vivo, 100 mg/kg): 4 fold
effect on cAMP generation at baseline and with isoproterenol [4]: enhanced
effect of compound by itself on IP production [5]: no effect by itself
effect on DAMGO- and morphine-dependent IP production [5]: significantly attenuated

O=C(O)C1CCCCC1c1c2ccc(=O)cc-2oc2cc(O)ccc12 (stereo not shown) [Compound M119B]
IC50 (Gβ1γ2): > 300000 nM
